Source: ChEMBL document CHEMBL1137915, “SAR and factor IXa crystal structure of a dual inhibitor of factors IXa and Xa” (Bioorg Med Chem Lett, 2004)

What was measured:
Coagulation factor IX = Coagulation factor IX (Homo sapiens, UniProt P00740); test: Binding affinity towards human factor IXa
Coagulation factor X = Coagulation factor X (Homo sapiens, UniProt P00742); test: Binding affinity towards human factor Xa
Coagulation factor X, sequence (P00742 41-179 limits assumed): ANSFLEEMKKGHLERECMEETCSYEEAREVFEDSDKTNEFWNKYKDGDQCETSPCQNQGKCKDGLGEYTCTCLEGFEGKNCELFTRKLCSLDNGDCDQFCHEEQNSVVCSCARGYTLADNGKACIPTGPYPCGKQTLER
Coagulation factor X, sequence (P00742 235-488 limits assumed): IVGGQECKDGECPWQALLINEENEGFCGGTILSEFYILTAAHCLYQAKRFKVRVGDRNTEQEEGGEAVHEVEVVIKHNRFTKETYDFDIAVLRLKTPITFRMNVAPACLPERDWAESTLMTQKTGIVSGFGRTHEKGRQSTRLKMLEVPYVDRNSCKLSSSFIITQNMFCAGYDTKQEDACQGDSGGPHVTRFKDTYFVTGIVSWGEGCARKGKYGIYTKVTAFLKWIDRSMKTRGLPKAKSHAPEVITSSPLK

Coagulation factor IX, sequence (P00740 47-191 limits assumed): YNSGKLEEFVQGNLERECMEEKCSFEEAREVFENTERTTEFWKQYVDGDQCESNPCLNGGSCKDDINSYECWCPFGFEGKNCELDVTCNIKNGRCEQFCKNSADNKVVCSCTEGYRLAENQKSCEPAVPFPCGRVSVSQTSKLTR
Coagulation factor IX, sequence (P00740 227-461 limits assumed): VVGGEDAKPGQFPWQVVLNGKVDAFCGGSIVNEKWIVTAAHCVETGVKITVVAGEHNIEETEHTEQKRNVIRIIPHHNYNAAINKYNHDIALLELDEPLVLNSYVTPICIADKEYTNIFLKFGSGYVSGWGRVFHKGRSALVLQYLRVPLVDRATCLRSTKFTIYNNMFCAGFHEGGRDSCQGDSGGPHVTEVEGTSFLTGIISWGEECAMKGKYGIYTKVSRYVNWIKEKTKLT

Structure (SMILES) | Ki (Coagulation factor IX) [nM] | Ki (Coagulation factor X) [nM]
N=C(N)c1cccc(-n2nc(-c3cccnc3)cc2C(=O)Nc2ccc(-n3cnc4ccccc43)cc2)c1 | 5.5 | 
N=C(N)c1cccc(-n2nc(C(F)(F)F)cc2C(=O)Nc2ccc(-n3cnc4cccnc43)cc2F)c1 | 13 | 0.02
N=C(N)c1cccc(-n2nc(C(F)(F)F)cc2C(=O)Nc2ccc(-n3cnc4cc(C(F)(F)F)ccc43)cc2F)c1 | 6.4 | 
N=C(N)c1cccc(-n2nc(-c3cccnc3)cc2C(=O)Nc2ccc(-n3cnc4cc(Cl)ccc43)cc2)c1 | 15 | 
N=C(N)c1cccc(-n2nc(Cn3ccnn3)cc2C(=O)Nc2ccc(-n3cnc4ccccc43)cc2)c1 | 20 | 
N=C(N)c1cccc(-n2nc(C(F)(F)F)cc2C(=O)Nc2ccc(-n3cnc4ncccc43)cc2F)c1 | 7.9 | 0.02
N=C(N)c1cccc(-n2nc(C(F)(F)F)cc2C(=O)Nc2ccc(-n3ccnc3)cc2)c1 | 72 | 0.09
N=C(N)c1cccc(-n2nc(Cn3cncn3)cc2C(=O)Nc2ccc(-n3cnc4ccccc43)cc2)c1 | 44 | 0.19
N=C(N)c1cccc(-n2nc(C(F)(F)F)cc2C(=O)Nc2ccc(-n3ccc4ccccc43)cc2F)c1 | 1700 | 
Cc1ccc2c(c1)ncn2-c1ccc(NC(=O)c2cc(C(F)(F)F)nn2-c2cccc(C(=N)N)c2)c(F)c1 | 10 | 
N=C(N)c1cccc(-n2nc(C(F)(F)F)cc2C(=O)Nc2ccc(-n3cnc4cc(Cl)ccc43)cc2F)c1 | 4.2 | 
N=C(N)c1cccc(-n2nc(C(F)(F)F)cc2C(=O)Nc2ccc(-n3cnc4ccccc43)cc2)c1 | 11 | 0.09
N=C(N)c1cccc(-n2nc(Cn3cnnn3)cc2C(=O)Nc2ccc(-n3cnc4ccccc43)cc2)c1 | 11 | 
N=C(N)c1cccc(-n2nc(C(F)(F)F)cc2C(=O)Nc2ccc(N3C(=O)N=C4C=CC=CC43)cc2)c1 (stereo unspecified) | 190 | 0.05
N=C(N)c1cccc(-n2nc(C(F)(F)F)cc2C(=O)Nc2ccc(-n3cnc4cc(Cl)c(Cl)cc43)cc2F)c1 | 26 | 
N=C(N)c1cccc(-n2nc(C(F)(F)F)cc2C(=O)Nc2ccc(-n3cnc4ccncc43)cc2F)c1 | 7.9 | 0.04
N=C(N)c1cccc(-n2nc(C(F)(F)F)cc2C(=O)Nc2ccc(-n3cnc4cc(N)ccc43)cc2F)c1 | 11 | 
Cc1cc(C(=O)Nc2ccc(-n3cnc4ccccc43)cc2)n(-c2cccc(C(=N)N)c2)n1 | 82 | 
Cc1cc(C(=O)Nc2ccc(-c3ccccc3S(N)(=O)=O)cc2)n(-c2cccc(C(=N)N)c2)n1 | 1900 | 
N=C(N)c1cccc(-n2nc(C(F)(F)F)cc2C(=O)Nc2ccc(-n3cnc4ccc(Cl)cc43)cc2F)c1 | 5.1 | 
N=C(N)c1cccc(-n2nc(Cn3ccnc3)cc2C(=O)Nc2ccc(-n3cnc4ccccc43)cc2)c1 | 120 | 
N=C(N)c1cccc(-n2nc(C(F)(F)F)cc2C(=O)Nc2ccc(-n3cnc4cnccc43)cc2F)c1 | 8 | 0.03
N=C(N)c1cccc(-n2nc(C(F)(F)F)cc2C(=O)Nc2ccc(-n3cnc4cc([N+](=O)[O-])ccc43)cc2F)c1 | 11 | 
